Measured values as given in patent US8741576B2, “Heteroclitic analogs and related methods” (Epimunne Inc., priority 1999, dated 2014).
Ends that are not written are not given here.

The compounds below were run against HLA-B7 (B*0702) (Homo sapiens, UniProt P01889) (assay: HLA-B7 (B*0702) peptide binding, competition with radiolabeled SS 5-13a (L7→Y) peptide). Conditions: purified HLA-B7.
For VPISHLEIL [MAGE2.170E7], the IC50 was 186 nM. VPISHLGIL [MAGE2.170G7] was tested, and the IC50 was 105 nM. Work on VPISHLHIL [MAGE2.170H7] yielded an IC50 of 75 nM. VPISHLMIL [MAGE2.170M7] showed an IC50 of 69 nM.

These compounds were tested on human PBMC CTL; 624mel tumor cell line (assay: Primary in vitro CTL induction from human PBMC with MAGE3.112 or analogs). Conditions: IFNγ against .221A2.1 cells with or without peptide.
CC[C@H](C)[C@H](NC(=O)[C@H](CCC(=O)O)NC(=O)[C@H](C)NC(=O)[C@@H](NC(=O)[C@@H](N)CCCCN)C(C)C)C(=O)N[C@H](C(=O)N[C@@H](Cc1c[nH]cn1)C(=O)N[C@@H](Cc1ccccc1)C(=O)N[C@@H](CC(C)C)C(=O)O)C(C)C [MAGE3.112 I5] was tested, and the “peptide-specific CTL responses in human PBMC cultures stimulated with the peptide” value was “Peptide-specific CTL responses were detected”. In the case of CC(C)C[C@H](NC(=O)[C@H](Cc1ccccc1)NC(=O)[C@H](Cc1c[nH]c2ccccc12)NC(=O)[C@@H](NC(=O)[C@H](CC(C)C)NC(=O)[C@H](CCC(=O)O)NC(=O)[C@H](C)NC(=O)[C@@H](NC(=O)[C@@H](N)CCCCN)C(C)C)C(C)C)C(=O)O [MAGE3.112 W7], the “peptide-specific CTL responses in human PBMC cultures stimulated with the peptide” value is reported as “Peptide-specific CTL responses were detected”.
